# From patent US20240082212A1, “USE OF MDMA FOR TREATMENT OF STRESS-RELATED DISORDERS” (priority 2022, published 2024)
# “Also recorded” adds a separate entry of the source.
# What was measured:
# Serotonin 5-HT2B = Serotonin 5-HT2B (Homo sapiens, UniProt P41595); test: Eurofins Panlabs radioligand binding panel, serotonin 5-HT2B; details: 0.3 nM to 10 μM, duplicate
# [1] = Rat plasma pharmacokinetics after cumulative (QID) SC injections; details: QID SC; for AUC(0-t) / half-life: CD (Sprague Dawley); for half-life: T1/2, male rat plasma
# CD (Sprague Dawley) rats = test: Rat functional observation battery (FOB) neurobehavioral evaluation after cumulative SC dosing; type: in vivo
# Description: The observations were assessed through a rat functional observation battery (FOB) and continuous physiological measurements on the day of cumulative dosing, which are provided in further detail below.
# Methods. A total of 42 adult male CD® (Sprague Dawley) rats (Charles River Laboratories) were surgically implanted with DSI radiotelemetry devices by personnel at Charles River Laboratories Raleigh, NC, per their test site SOPs. Telemetry devices supported continuous recording of temperature, activity, blood pressure and heart rate. Telemeterized rats were shipped to the Charles River Laboratories testing facility (Mattawan, MI) and acclimated to the environment for at least 1 week prior to experimentation. Animals were pair-housed in solid bottom cages with nonaromatic bedding. On the dosing day, animals were singly housed and then returned to the paired cohort following the dosing/telemetry recording phase. Diet (Lab Diet® Certified Rodent Diet #5CR4) and tap water via an automatic water system were available ad libitum, except during designated procedures. Temperature and humidity were maintained according to the Testing Facility SOP. Animals were randomized into treatment groups using a standard, by weight, measured value randomization procedure. Body weight was determined for each rat prior to dosing.
# As illustrated in the Table, a total of 36 rats were included in the study. The vehicle and 2 test article doses were administered in a volume of 1 mL/kg to each of 3 groups of n=12 telemeterized rats via subcutaneous injection four times on a given day, followed by neurobehavioral evaluations. This series was repeated 3 times on study. Each group received all 3 dose levels of the applicable test or control article in ascending order with a 1-week washout between dose levels.
# Mortality/cage side clinical observations were conducted for all study animals at least twice daily beginning upon receipt through termination, except on days of receipt and termination where frequency was at least once daily. Detailed clinical observations were conducted for all study animals prior to each of the four cumulative doses in a series. Individual body weights were conducted for all study animals at transfer, prior to randomization, on the day of dosing on each of the 3 cycles of dosing. The body weights recorded at transfer and prior to randomization are not reported but are maintained in the study file. Veterinary care was available throughout the course of the study, and animals were examined by the veterinary staff as needed based on clinical signs or other changes. All animals were provided with HydroGel the night prior to their respective dosing days to potentially mitigate any animal welfare issues related to fluid loss/dehydration.
# Neurobehavioral evaluations (blinded) were conducted for all study animals 1 hour following the last (4th) cumulative dose of the series. The neurobehavioral parameters evaluated included: activity measurements (arousal/alertness, posture/body carriage, stereotypy, rearing, and appearance), autonomic measurements (exophthalmus, lacrimation, erected fur, pupil response, salivation, defecation, and palpebral closure/ptosis), excitability measurements (vocalizations, startle response, ease of removal, handling reactivity, and convulsions), neuromuscular measurements (gait/mobility, grip strength/response, air righting reflex, tremor, and body tone), physiological measurements (respiration and body temperature), and sensorimotor measurements (touch response/tactile reflex and thermal response).
# C57BL/6J mice = test: Head twitch response (HTR); type: in vivo, mouse; details: 30 minutes after injection
# Description: Male C57BL/6J mice at 6-8 weeks of age were purchased from Jackson Laboratories and housed four per cage in a climate and humidity-controlled room in a vivarium at the University of California, San Diego. The room operated on a reverse light cycle (lights on at 1900 h, off at 0700 h) with food and water available ad libitum, except during testing. All testing was performed during 1000 h and 1800 h. After a minimum of 1 week acclimation to the housing facility, mice were anesthetized using a mixture of ketamine (100 mg/kg IP) and xylazine (10 mg/kg IP). Under deep anesthesia, an incision was made in the scalp and a small neodymium magnet (4.57 mm×4.57 mm×2.03 mm) was attached to the cranium using cyanoacrylate and dental cement. After at least a 2-week recovery period, the mouse was removed from the home cage and injected intraperitoneally with the test article or vehicle (0.9% sterile saline). Immediately, the mouse was placed in a glass cylinder surrounded by a magnetometer coil and the head twitch response (HTR) was assessed for 30 minutes (Halberstadt and Geyer, 2013). The output of the coil was recorded using a Powerlab/8SP with LabChart v.7.3.2 (ADInstruments). Coil voltage was amplified, low-pass filtered (2-10 kHz cut-off frequency) to remove interference, digitized and sampled at 20 kHz. Head twitches were identified using a validated technique based on artificial intelligence (Halberstadt, 2020). Events in the recordings were transformed into a visual representation in the time-frequency domain and deep features were extracted using the pretrained convolutional neural network ResNet-50, and the images were subsequently classified using a Support Vector Machine algorithm.
# Test articles (R,S-MDA, R(−)-MDA, S-(+)MDA), R,S-MDMA, R(−)-MDMA and S(+)-MDMA) were supplied by the NIDA Drug Supply Program as neat powders. Racemic MDA and MDMA and their enantiomers were dissolved in saline and injected IP at a volume of 5 mL/kg. Each dose was calculated based on the salt form of the compounds. For each treatment condition, six groups of mice (n=5-6/group) were treated with vehicle or the test drug (0.1, 0.3, 1, 3, or 10 mg/kg) and HTR assessed for 30 minutes immediately following injections. To avoid carryover effects, each treatment condition was performed at least seven days apart. Total number of mice used for the experiment was 63.
# [2] = male rat plasma, parent analyte, total 5 mg/kg/day
# [3] = male rat plasma, parent analyte, total 10 mg/kg/day
# [4] = male rat plasma, parent analyte, total 20 mg/kg/day
# [5] = 1 h after last of 4 hourly SC injections, R-MDMA and racemic MDMA 10, 20 mg/kg/day, S-MDMA 5, 10 mg/kg/day
# [6] = 1 h after last of 4 hourly SC injections, racemic MDMA 10, 20 mg/kg/day, S-MDMA 5, 10 mg/kg/day
# [7] = FOB, cumulative SC dosing, dose groups stated in the value
# Chain of Serotonin 5-HT2B (P41595 whole entry): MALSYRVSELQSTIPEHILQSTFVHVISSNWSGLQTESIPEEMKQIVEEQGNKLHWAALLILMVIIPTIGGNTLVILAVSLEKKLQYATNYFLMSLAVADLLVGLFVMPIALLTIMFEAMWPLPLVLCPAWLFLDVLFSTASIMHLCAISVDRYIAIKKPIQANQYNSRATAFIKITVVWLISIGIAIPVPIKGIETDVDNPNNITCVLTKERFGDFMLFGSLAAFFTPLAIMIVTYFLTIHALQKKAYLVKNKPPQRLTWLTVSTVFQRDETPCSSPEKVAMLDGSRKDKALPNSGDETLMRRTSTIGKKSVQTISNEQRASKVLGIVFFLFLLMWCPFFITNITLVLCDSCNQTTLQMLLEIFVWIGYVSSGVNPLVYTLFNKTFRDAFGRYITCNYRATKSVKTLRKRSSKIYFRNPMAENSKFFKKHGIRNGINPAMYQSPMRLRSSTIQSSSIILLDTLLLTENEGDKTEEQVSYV
smiles,measurement,setting,value
"CNC(C)Cc1ccc2c(c1)OCO2 (single isomer, unassigned) [S-MDMA, S(+)-MDMA]",IC50,"Serotonin 5-HT2B; IC50, 10 half-log concentrations",12 µM
same,Ki,"Serotonin 5-HT2B; Ki, 10 half-log concentrations",7.65 µM
same,dose dependence of Cmax and AUC0-27 hr,[1]; from 5 to 10 mg/kg/day S-MDMA,approximately dose proportional manner
same,dose dependence of Cmax and AUC0-27 hr,[1]; from 5 to 20 mg/kg/day S-MDMA,greater than dose proportional manner
same,Cmax,"[1]; male rat plasma, parent analyte (total MDMA after Rac-MDMA), total 10 mg/kg/day of the test article",1220 ng/mL
same,Cmax,"[1]; male rat plasma, parent analyte (total MDMA after Rac-MDMA), total 20 mg/kg/day of the test article",2560 ng/mL
same,AUC0-27 hr/Dose,[1]; [2],302 *kg*ng/mL/mg
same,Cmax/Dose,[1]; [2],89.3 kg·ng/mL/mg
same,Tlast,[1]; [2],7 h
same,AUC0-27 hr,[1]; [3],4130 ng·h/mL
same,AUC0-27 hr/Dose,[1]; [3],413 *kg*ng/mL/mg
same,AUCTlast,[1]; [3],4030 ng·h/mL
same,Cmax/Dose,[1]; [3],122 kg·ng/mL/mg
same,T1/2,[1]; [3],1.15 h
same,Tlast,[1]; [3],11 h
same,Tmax,"[1]; male rat plasma, parent analyte, total 10 mg/kg/day, time after 1st injection",3.5 h
same,AUC0-27 hr,[1]; [4],15000 ng·h/mL
same,AUC0-27 hr/Dose,[1]; [4],748 *kg*ng/mL/mg
same,AUCTlast,[1]; [4],15000 ng·h/mL
same,Cmax/Dose,[1]; [4],128 kg·ng/mL/mg
same,Tlast,[1]; [4],27 h
same,AUC(0-t),"[1]; male, rat, plasma, sc, 5 mg/kg/day, AUC0-27 hr, male rat plasma, parent analyte, total 5 mg/kg/day",1510 ng·h/mL
same,AUC(0-t),"[1]; male, rat, plasma, sc, 5 mg/kg/day, AUCTlast, male rat plasma, parent analyte, total 5 mg/kg/day",1490 ng·h/mL
same,half-life,"[1]; male, rat, plasma, sc, 5 mg/kg/day, parent analyte, total 5 mg/kg/day",0.754 h
same,half-life,"[1]; male, rat, plasma, sc, 20 mg/kg/day, parent analyte, total 20 mg/kg/day",3.17 h
same,Cmax,"[1]; male, Sprague-Dawley (CD), rat, plasma, sc, 5 mg/kg/day, Cmax, male rat plasma, parent analyte, total 5 mg/kg/day of the test article",447 ng/mL
same,arousal/alertness and rearing,CD (Sprague Dawley) rats; [5],general increase in overall levels of arousal/alertness and rearing
same,ease of removal from the home cage and handling reactivity (excitability),CD (Sprague Dawley) rats; [5],Dose-dependent increased difficulty in removal from the home cage and increased handling reactivity
same,forelimb grip strength,CD (Sprague Dawley) rats; [5],dose-dependent statistically significant decreases in forelimb grip strength
same,salivation and erected fur (autonomic),CD (Sprague Dawley) rats; [5],Dose-dependent increased salivation and erected fur
same,unkempt appearance,CD (Sprague Dawley) rats; [5],increased incidence of unkempt appearance in a dose-dependent manner
same,"stereotypies (mouth movements/weaving, circling/retropulsion, sniffing)","CD (Sprague Dawley) rats; 1 h after last of 4 hourly SC injections, highest doses: S-MDMA 10, racemic-MDMA 20 mg/kg/day, R-MDMA 10, 20 mg/kg/day",observed in animals treated with S-MDMA and racemic-MDMA only at the highest tested doses; also recorded: only one S-MDMA-treated animal was reported with stereotypical behaviors
same,general gait/mobility changes,CD (Sprague Dawley) rats; [6],General gait/mobility changes were only observed
same,respiration,CD (Sprague Dawley) rats; [6],Rapid respiration was noted
same,Rank Order Activity Measurement Effects,CD (Sprague Dawley) rats; [7],S-MDMA (5 mg/kg/day) < R-MDMA (10 mg/kg/day) < Rac.-MDMA (10 mg/kg/day); also recorded: Rac.-MDMA (20 mg/kg/day) < S-MDMA (10 mg/kg/day) < R-MDMA (20 mg/kg/day); also recorded: S-MDMA (0 mg/kg/day) < S-MDMA (5 mg/kg/day) < S-MDMA (10 mg/kg/day); also recorded: Rac.-MDMA (20 mg/kg/day) < S-MDMA (10 mg/kg/day) < R-MDMA (10 mg/kg/day)
same,Rank Order Autonomic Measurement Effects,CD (Sprague Dawley) rats; [7],R-MDMA (10 mg/kg/day) < S-MDMA (5 mg/kg/day) < Rac.-MDMA (10 mg/kg/day); also recorded: R-MDMA (20 mg/kg/day) < S-MDMA (10 mg/kg/day) < Rac-MDMA (20 mg/kg/day); also recorded: S-MDMA (0 mg/kg/day) < S-MDMA (5 mg/kg/day) < S-MDMA (10 mg/kg/day); also recorded: R-MDMA (10 mg/kg/day) < S-MDMA (10 mg/kg/day) = Rac-MDMA (20 mg/kg/day)
same,Rank Order Excitability Measurement Effects,CD (Sprague Dawley) rats; [7],R-MDMA (10 mg/kg/day) < S-MDMA (5 mg/kg/day) < Rac.-MDMA (10 mg/kg/day); also recorded: R-MDMA (20 mg/kg/day) = S-MDMA (10 mg/kg/day) < Rac-MDMA (20 mg/kg/day); also recorded: S-MDMA (0 mg/kg/day) < S-MDMA (5 mg/kg/day) < S-MDMA (10 mg/kg/day); also recorded: R-MDMA (10 mg/kg/day) < S-MDMA (10 mg/kg/day) < Rac-MDMA (20 mg/kg/day)
same,Rank Order Neuromuscular Measurement Effects,CD (Sprague Dawley) rats; [7],R-MDMA (10 mg/kg/day) < S-MDMA (5 mg/kg/day) < Rac.-MDMA (10 mg/kg/day); also recorded: R-MDMA (20 mg/kg/day) = S-MDMA (10 mg/kg/day) < Rac-MDMA (20 mg/kg/day); also recorded: S-MDMA (0 mg/kg/day) < S-MDMA (5 mg/kg/day) = S-MDMA (10 mg/kg/day); also recorded: R-MDMA (10 mg/kg/day) < S-MDMA (10 mg/kg/day) < Rac-MDMA (20 mg/kg/day)
same,Rank Order Physiological Measurement Effects,CD (Sprague Dawley) rats; [7],R-MDMA (10 mg/kg/day) < S-MDMA (5 mg/kg/day) < Rac.-MDMA (10 mg/kg/day); also recorded: R-MDMA (20 mg/kg/day) < S-MDMA (10 mg/kg/day) = Rac-MDMA (20 mg/kg/day); also recorded: S-MDMA (0 mg/kg/day) < S-MDMA (5 mg/kg/day) < S-MDMA (10 mg/kg/day); also recorded: R-MDMA (10 mg/kg/day) < S-MDMA (10 mg/kg/day) = Rac-MDMA (20 mg/kg/day)
same,Rank Order Sensorimotor Measurement Effects,CD (Sprague Dawley) rats; [7],S-MDMA (5 mg/kg/day) < Rac-MDMA (10 mg/kg/day) < R-MDMA (10 mg/kg/day); also recorded: S-MDMA (10 mg/kg/day) < Rac-MDMA (20 mg/kg/day) < R-MDMA (20 mg/kg/day); also recorded: S-MDMA (0 mg/kg/day) < S-MDMA (10 mg/kg/day) < S-MDMA (5 mg/kg/day)
same,thermal response times,"CD (Sprague Dawley) rats; at levels at least two-fold that of vehicle-treated groups, 1 h after last of 4 hourly SC injections",Statistically significant increases in thermal response times
same,head twitch response (HTR) compared to control (vehicle),C57BL/6J mice; 3 mg/kg IP,reduction of HTR
same,head twitch response (HTR) compared to control (vehicle),C57BL/6J mice; 10 mg/kg IP,reduction of HTR
